From ChEMBL document CHEMBL4190372, “Discovery of a Novel Oral Glucocorticoid Receptor Modulator (AZD9567) with Improved Side Effect Profile” (J Med Chem, 2018) come the findings set out here.

Molecules are shown by their SMILES. Values after ≈ are worked out from the molar mass of the structure shown. Some results are limits rather than exact numbers.

The target in data set [1] is T1, Glucocorticoid receptor (Homo sapiens) (UniProt P04150).
T1 sequence (whole entry): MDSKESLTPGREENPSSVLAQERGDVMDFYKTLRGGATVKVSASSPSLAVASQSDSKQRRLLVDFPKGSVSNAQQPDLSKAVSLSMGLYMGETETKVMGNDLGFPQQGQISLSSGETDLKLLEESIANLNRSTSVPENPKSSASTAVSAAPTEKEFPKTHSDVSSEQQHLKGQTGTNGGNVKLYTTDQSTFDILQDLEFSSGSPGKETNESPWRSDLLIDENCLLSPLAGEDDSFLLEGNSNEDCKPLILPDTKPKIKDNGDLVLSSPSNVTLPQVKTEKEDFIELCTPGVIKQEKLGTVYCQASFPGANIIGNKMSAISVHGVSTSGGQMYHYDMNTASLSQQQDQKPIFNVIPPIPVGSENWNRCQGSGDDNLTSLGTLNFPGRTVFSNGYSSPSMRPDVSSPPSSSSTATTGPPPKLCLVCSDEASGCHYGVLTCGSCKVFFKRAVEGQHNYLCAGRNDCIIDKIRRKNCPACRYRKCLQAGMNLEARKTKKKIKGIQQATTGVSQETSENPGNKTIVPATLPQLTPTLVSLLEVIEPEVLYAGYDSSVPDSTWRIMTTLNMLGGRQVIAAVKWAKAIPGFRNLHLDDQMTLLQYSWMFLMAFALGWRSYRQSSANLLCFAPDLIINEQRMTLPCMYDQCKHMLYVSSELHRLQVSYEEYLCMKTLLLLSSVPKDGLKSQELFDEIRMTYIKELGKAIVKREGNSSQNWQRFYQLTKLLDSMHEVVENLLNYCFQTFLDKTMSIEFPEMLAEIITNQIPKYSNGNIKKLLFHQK
Description: Transrepression of GR in cryopreserved human fetal osteoblasts assessed as inhibition of OPG mRNA expression after 4 hrs by RT-qPCR analysis

A short description of data set [2]: Terminal half life in Han-Wistar rat at 0.8 mg/kg, iv. The data set is classed as ADME, organism-based. Conditions: in vivo, read-out: beta t1/2 (converted).
A short description of data set [3]: Aqueous solubility of the compound. The data set is classed as physicochemical. Conditions: aqueous; read-out: solubility.
Data set [4] in a line: Clearance in Beagle dog at 0.5 mg/kg, po. The data set is classed as ADME, organism-based, Canis lupus familiaris. The conditions noted are these: in vivo.
The next data set concerns the target T2, Estrogen receptor (Homo sapiens, UniProt P03372).
T2 sequence (P03372 whole entry): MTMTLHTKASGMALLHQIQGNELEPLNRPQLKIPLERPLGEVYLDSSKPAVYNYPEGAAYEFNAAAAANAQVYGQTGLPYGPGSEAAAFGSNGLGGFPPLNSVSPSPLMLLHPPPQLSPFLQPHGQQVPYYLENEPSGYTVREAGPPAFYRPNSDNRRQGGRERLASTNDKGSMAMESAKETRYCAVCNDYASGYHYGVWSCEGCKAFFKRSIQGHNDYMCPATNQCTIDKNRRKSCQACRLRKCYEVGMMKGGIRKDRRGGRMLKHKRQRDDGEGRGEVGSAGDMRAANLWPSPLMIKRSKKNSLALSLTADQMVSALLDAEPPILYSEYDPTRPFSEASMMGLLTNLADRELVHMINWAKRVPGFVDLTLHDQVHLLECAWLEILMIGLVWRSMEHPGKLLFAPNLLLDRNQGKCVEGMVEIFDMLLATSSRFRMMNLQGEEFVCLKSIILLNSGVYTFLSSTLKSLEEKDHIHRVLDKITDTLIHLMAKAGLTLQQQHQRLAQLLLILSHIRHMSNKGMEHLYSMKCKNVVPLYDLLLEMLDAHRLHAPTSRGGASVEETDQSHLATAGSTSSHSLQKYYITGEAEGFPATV
Description: Binding affinity to human ERalpha expressed in Sf9 cells by fluoligand binding-based fluorescence polarization method.

Data set [5] is described as follows: Oral bioavailability in Han-Wistar rat at […]. The data set is classed as ADME, organism-based. The conditions noted are these: in vivo.
Data set [6] has as its target T3, Glucocorticoid receptor (Homo sapiens, UniProt P04150).
T3 sequence (P04150 whole entry): T1 sequence (whole entry)
Description: Transrepression activity at glucocorticoid receptor (unknown origin) expressed in human ChaGoK1 cells assessed as inhibition of PMA-stimulated gene expression incubated for 24 hrs by beta-galactosidase reporter gene assay

Data set [7] in a line: Volume of distribution at steady state in Han-Wistar rat at 0.8 mg/kg, iv. In kind it is ADME, organism-based. Conditions: in vivo, read-out: Vdss.
The target in data set [8] is T3, Glucocorticoid receptor. This is another data set of the same source.
Description: (§1) Transrepression of GR in human whole blood assessed as inhibition of LPS-induced TNF-alpha release preincubated for 45 mins followed by LPS addition after 18 hrs by AlphaLISA method
The target in data set [9] is T4, Mineralocorticoid receptor (Homo sapiens, UniProt P08235).
T4 sequence (P08235 whole entry): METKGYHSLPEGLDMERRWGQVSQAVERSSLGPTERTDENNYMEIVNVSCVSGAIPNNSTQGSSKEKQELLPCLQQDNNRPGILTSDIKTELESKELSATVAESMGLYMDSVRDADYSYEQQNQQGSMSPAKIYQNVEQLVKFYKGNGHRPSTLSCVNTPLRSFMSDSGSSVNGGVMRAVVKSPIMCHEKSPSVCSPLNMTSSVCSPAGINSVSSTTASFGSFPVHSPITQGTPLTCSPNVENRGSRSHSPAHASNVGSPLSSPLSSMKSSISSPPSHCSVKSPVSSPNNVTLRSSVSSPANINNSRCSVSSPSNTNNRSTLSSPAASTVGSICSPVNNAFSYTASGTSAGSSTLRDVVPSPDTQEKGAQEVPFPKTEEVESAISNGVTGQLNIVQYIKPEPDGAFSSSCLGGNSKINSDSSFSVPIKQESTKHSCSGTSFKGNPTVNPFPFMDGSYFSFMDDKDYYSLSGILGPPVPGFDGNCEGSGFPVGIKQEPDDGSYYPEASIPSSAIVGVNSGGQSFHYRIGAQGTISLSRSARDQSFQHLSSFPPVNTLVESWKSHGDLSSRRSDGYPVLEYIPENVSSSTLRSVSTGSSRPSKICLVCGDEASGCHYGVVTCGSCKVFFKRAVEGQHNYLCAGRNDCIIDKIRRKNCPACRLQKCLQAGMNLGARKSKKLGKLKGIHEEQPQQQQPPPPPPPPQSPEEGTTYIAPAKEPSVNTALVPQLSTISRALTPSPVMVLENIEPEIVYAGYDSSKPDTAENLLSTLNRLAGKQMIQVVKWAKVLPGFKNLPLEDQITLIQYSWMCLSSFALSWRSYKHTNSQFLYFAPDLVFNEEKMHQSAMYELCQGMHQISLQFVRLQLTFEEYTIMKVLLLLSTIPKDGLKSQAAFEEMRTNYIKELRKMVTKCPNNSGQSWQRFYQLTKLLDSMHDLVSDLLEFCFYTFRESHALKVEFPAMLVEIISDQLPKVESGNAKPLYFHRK
Description: Displacement of [3H]-aldosterone from human mineralocorticoid receptor LBD (729 to 984 residues) after 1 hr by scintillation proximity assay.

Data set [10] has as its target T1, Glucocorticoid receptor (Homo sapiens). The source holds these as a separate data set.
Description: as §1
The nature of data set [11]: Oral bioavailability in Beagle dog at 0.5 mg/kg. In kind it is ADME, organism-based, Canis lupus familiaris. Conditions: in vivo.
Data set [12] in a line: Ratio of drug level in rat blood to plasma. The conditions noted are these: blood and plasma. In kind it is ADME, cell-free.

Turning to `CC(C)[C@H](NC(=O)C(C)(F)F)[C@H](Oc1ccc2c(cnn2-c2ccc(=O)n(C)c2)c1)c1ccccc1` [MIZACORAT], the fIC20 in data set [1] stood at 0.74 nM. For the same compound, the half-life in data set [2] is 2.3 h. Also, in data set [3], the solubility was found to be 55 µM (≈ 27.2 µg/mL). The CL/F in [4] is 3.2 mL/min/kg. Besides, the IC50 is greater than 100000 nM on Estrogen receptor, 7 nM against Glucocorticoid receptor [6], 680 nM at Glucocorticoid receptor [8] and greater than 38000 nM in data set [9]. The values for the bioavailability in [5] and in [11] were 52% and 48%, respectively. In addition, the Vd in [7] came out at 0.66 L/kg. Further, the fIC30 in data set [10] was 1.4 nM. Besides, the blood plasma ratio in data set [12] is 0.64.
